From patent US12239134B2, “Plant antimicrobial compositions including an emulsifier and/or ozone and methods of use” (Arizona Board of Regents on Behalf of The University of …, priority 2018, dated 2025)

Experiments:
[1] = tested on: mesophilic and psychrotrophic bacteria; conditions: 3 minutes (Kim et al. 1999); cited from earlier work
total plate counts = conditions: Wang et al. 2004; cited from earlier work
[2] = tested on: Salmonella enterica serovar Newport SN78; assay: Ozone-plant antimicrobial wash of inoculated iceberg lettuce leaves; format: cell-based; conditions: ozonated wash
Experimental: Bacterial culture: Salmonella enterica serovar Newport SN78 (bovine isolate; provided by Dr. Marilyn Erickson, University of Georgia, Griffin, GA) was used for this experiment. Dual antibiotic resistance (100 μg/ml ampicillin and 25 μg/ml streptomycin, Amresco, Solon, OH) was developed in the strain through incremental antibiotic exposure. […] The frozen stock culture was initially revived through two transfers into brain heart infusion broth (BHIB) (Becton, Dickinson and Co (BD), Sparks, MD) followed by isolation on xylose lysine desoxycholate (XLD) agar (Becton, Dickinson and Co (BD), Sparks, MD) containing 100 μg/ml ampicillin and 25 μg/ml streptomycin.
Inoculum Preparation: For each experiment, a 20 hour overnight culture was prepared by inoculating 100 μl of the culture in 30 ml of tryptic soy broth (TSB) containing 100 μg/ml ampicillin and 25 μg/ml streptomycin and incubating at 37° C. in a desktop orbital shaker at 200 rpm (MaxQ 4450, Thermo Scientific, Dubuque, IA, USA). The cells in the medium were pelleted by centrifugation at 4000 g (Eppendorf Model 5810, Hamburg, Germany) and the supernatant was discarded. […]. The four outer leaves of the iceberg lettuce were removed and discarded. Whole leaf samples (10 g±0.5 g each) were used. The iceberg lettuce samples were inoculated by immersing 10 g portions into the PBS-S. Newport suspension for 2 minutes. After immersion, the excess culture suspension was allowed to drain from the leaf and the leaves were allowed to dry in a biohood for 1 hour to aid in the attachment of S. Newport to the leaf surface.
Antimicrobial wash solution preparation: The test plant-based antimicrobials used in this study consisted of oregano oil made from pure Origanum vulgare (Lhasa Karnak Company, Berkeley, California), its active component carvacrol (98% pure, molecular weight 150.2, CAS no. 499-75-2, Sigma, St. Louis, MO), olive extract (CreAgri, Hayward, CA), and quillaja saponin made from Quillaja saponaria (Sigma Aldrich, St. Louis, MO). […]

## O=[O+][O-] [ozonized water, ozone]
[1]
  decreased counts of mesophilic bacteria on shredded lettuce: 1.4 log CFU/g
  decreased counts of psychrotrophic bacteria on shredded lettuce: 1.8 log CFU/g
Total plate counts
  total plate counts on cilantro leaves after treatment: did not decrease total plate counts
[2]; 60 min
  reduction in S. Newport population on iceberg lettuce leaves: 1.76±0.27 log CFU/g
[2]; 90 min
  reduction in S. Newport population on iceberg lettuce leaves: 1.67±0.28 log CFU/g
[2]; 120 min
  reduction in S. Newport population on iceberg lettuce leaves: 2.09±0.54 log CFU/g
